Measured values reported in patent publication US9617247B1, “Form of halosulfuron-methyl, a process for its preparation and use of the same” (priority 2015, dated 2017).

Assays:
Type in all cases: physicochemical
[1] = Determining water solubility (pH 7 buffer, HPLC of supernatant); settings: for Concentration measured by HPLC after treatment: pH 7 buffer
Procedure: A stock pH 7 buffer solution was prepared by adding aqueous sodium hydroxide solution (0.1 M, 145 mL) to aqueous potassium dihydrogen phosphate solution (0.1 M, 250 mL), and then adding sufficient distilled water to adjust the final volume to 500 mL. At least 1 time and up to about 5 times the amount of halosulfuron-methyl needed for saturation was added to a mixing vessel containing stock buffer solution at the test temperature (e.g., 20° C.). The mixture was magnetically stirred in the dark while being maintained at the test temperature. Samples were periodically removed for analysis. The samples were centrifuged using a high speed, temperature-controlled centrifuge at the test temperature for about 20 minutes at ≧12000 G to remove suspended particles. An aliquot of each supernatant was taken for analysis.
The concentration of halosulfuron-methyl in the supernatant was determined by a high pressure liquid chromatography (HPLC) with a reversed phase chromatography column and UV detection. […] Samples were successively withdrawn from the mixing vessel and analyzed until three successive samples show little or no variation in concentration. The test is preferably replicated to ensure accuracy.

[2] = Cleanout test (residual halosulfuron-methyl extracted from bottle with acetonitrile); settings: lower rating = more effective cleanout
Procedure: The test was conducted by dispersing in water a sample to produce a concentration that is normally used when applying the herbicide: 25% halosulfuron-methyl. The sample was added to tap water (300 mL) in a 400 mL beaker and magnetically stirred for 2 minutes. The mixture was then stirred for 2 minutes, whereupon the resulting dispersion was dispensed in three 100 mL aliquots to 4-oz (118 mL) polyethylene bottles. The bottles were capped, inverted twice and allowed to stand overnight.
After standing overnight, each individual bottle was inverted twice and the liquid contents were then poured out. Tap water (10 mL) was added and the bottle was inverted until all sediment was re-suspended, whereupon the contents were poured out. Tap water (100 mL) was added and the bottle was inverted twice and then allowed to stand undisturbed for 10 minutes. The bottle was inverted twice more and the contents were poured out. Acetonitrile (10 mL) was added to the bottle to extract any remaining material. The acetonitrile solution was analyzed by reversed-phase liquid chromatography with UV detection. The cleanout rating (the concentration of halosulfuron-methyl herbicide in the acetonitrile solution) is reported in % in Table 6 below.

[3] = Viscosity (stated finding, no method given)
[4] = OD formulation, measured vs original concentration 40%
[5] = OD formulation, original concentration 40%
[6] = SG formulation, measured vs original concentration 25%
[7] = SG formulation, original concentration 25%
[8] = WG formulation, measured vs original concentration 25%
[9] = WG formulation, original concentration 25%

SMILES | Solubility [1, 4] | Concentration measured by HPLC after treatment [1, 5] | Solubility [1, 6] | Concentration measured by HPLC after treatment [1, 7] | Solubility [1, 8] | Concentration measured by HPLC after treatment [1, 9] | Cleanout rating (concentration of halosulfuron-methyl in the acetonitrile solution) ([2]; OD formulation) | Cleanout rating (concentration of halosulfuron-methyl in the acetonitrile solution) ([2]; SG formulation) | Cleanout rating (concentration of halosulfuron-methyl in the acetonitrile solution) ([2]; WG formulation) | viscosity (in words) ([3]; listed as halosulfuron-methyl in amorphous state) | solubility (in words) ([1]; compared with amorphous halosulfuron-methyl) | viscosity (in words) ([3]; listed as crystalline modification I of halosulfuron-methyl)
COC(=O)c1c(Cl)nn(C)c1S(=O)(=O)NC(=O)Nc1nc(OC)cc(OC)n1 [Amorphous halosulfuron-methyl, methyl 3-chloro-5-(4,6-dimethoxypyrimidin-2-ylcarbamoylsulfamoyl)-1-methylpyrazole-4-carboxylate, reference compound] | 35% | 14% | 60% | 15% | 48% | 12% | 26% | 10% | 13% | highly viscous |  | 
COC(=O)c1c(Cl)nn(C)c1S(=O)(=O)NC(=O)Nc1nc(OC)cc(OC)n1 [Halosulfuron-methyl, crystalline modification I] [methyl 3-chloro-5-(4,6-dimethoxypyrimidin-2-ylcarbamoylsulfamoyl)-1-methylpyrazole-4-carboxylate] | 88% | 35% | 99.6% | 24.9% | 92% | 23% | 5% | 0.1% | 2% |  | significant increase | decrease
